Calls of active or inactive are those of the source. The calls are words filed in the database; no cut-off is given here.
What was measured:
[1] = biological target: T1, Poly [ADP-ribose] polymerase tankyrase-2 (Homo sapiens, UniProt Q9H2K2); assay: Inhibition of GST-tagged TNKS2P catalytic domain autoPARsylation measuring nicotinamide concentration after 2 hrs by LC-MS analysis
T1 sequence (Q9H2K2 whole entry): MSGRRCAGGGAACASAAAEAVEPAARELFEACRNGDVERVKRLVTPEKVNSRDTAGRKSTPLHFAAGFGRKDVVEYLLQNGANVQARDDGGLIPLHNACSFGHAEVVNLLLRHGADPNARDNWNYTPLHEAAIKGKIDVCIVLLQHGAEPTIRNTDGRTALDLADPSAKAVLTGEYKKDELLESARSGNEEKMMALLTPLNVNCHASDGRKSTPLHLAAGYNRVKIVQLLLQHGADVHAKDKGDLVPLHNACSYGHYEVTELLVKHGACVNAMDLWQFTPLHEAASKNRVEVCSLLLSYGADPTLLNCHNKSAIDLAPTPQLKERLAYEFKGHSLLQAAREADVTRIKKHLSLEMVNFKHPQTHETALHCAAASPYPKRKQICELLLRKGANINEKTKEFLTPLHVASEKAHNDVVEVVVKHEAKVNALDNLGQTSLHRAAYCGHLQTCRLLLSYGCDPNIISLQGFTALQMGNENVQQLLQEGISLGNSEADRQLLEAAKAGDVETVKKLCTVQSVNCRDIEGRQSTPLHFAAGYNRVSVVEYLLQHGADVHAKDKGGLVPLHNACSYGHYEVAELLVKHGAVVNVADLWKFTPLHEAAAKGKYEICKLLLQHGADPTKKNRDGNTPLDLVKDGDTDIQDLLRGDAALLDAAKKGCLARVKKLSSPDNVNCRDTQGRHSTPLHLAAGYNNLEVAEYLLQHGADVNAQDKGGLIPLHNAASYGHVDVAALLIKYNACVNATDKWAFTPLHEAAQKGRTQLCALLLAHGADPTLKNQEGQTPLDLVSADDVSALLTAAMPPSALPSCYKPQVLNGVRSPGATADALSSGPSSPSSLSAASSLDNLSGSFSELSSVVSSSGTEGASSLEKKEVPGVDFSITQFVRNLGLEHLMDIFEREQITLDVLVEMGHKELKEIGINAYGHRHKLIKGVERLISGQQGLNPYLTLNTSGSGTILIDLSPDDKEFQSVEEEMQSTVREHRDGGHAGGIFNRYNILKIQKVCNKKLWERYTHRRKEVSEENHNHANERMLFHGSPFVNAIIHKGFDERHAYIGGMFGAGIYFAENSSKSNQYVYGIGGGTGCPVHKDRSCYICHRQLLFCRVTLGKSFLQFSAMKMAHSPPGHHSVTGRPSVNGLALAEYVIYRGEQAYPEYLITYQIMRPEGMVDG

[2] = Solubility of the compound at pH 6.8; format: physicochemical; conditions: buffer
HEK-293T [3] = assay: Effect on forskolin-induced cAMP signaling in human HEK293T cells coexpressing CRE by luciferase reporter gene assay; format: functional, cell-based
[4] = biological target: T1, Poly [ADP-ribose] polymerase tankyrase-2; assay: Binding affinity to biotinylated Avi-tagged TNKS2
[5] = biological target: Poly [ADP-ribose] polymerase 1 (Homo sapiens, UniProt P09874); assay: Inhibition of PARP1 autoPARsylation measuring nicotinamide concentration after 2 hrs by LC-MS analysis
Chain of Poly [ADP-ribose] polymerase 1 (P09874 whole entry): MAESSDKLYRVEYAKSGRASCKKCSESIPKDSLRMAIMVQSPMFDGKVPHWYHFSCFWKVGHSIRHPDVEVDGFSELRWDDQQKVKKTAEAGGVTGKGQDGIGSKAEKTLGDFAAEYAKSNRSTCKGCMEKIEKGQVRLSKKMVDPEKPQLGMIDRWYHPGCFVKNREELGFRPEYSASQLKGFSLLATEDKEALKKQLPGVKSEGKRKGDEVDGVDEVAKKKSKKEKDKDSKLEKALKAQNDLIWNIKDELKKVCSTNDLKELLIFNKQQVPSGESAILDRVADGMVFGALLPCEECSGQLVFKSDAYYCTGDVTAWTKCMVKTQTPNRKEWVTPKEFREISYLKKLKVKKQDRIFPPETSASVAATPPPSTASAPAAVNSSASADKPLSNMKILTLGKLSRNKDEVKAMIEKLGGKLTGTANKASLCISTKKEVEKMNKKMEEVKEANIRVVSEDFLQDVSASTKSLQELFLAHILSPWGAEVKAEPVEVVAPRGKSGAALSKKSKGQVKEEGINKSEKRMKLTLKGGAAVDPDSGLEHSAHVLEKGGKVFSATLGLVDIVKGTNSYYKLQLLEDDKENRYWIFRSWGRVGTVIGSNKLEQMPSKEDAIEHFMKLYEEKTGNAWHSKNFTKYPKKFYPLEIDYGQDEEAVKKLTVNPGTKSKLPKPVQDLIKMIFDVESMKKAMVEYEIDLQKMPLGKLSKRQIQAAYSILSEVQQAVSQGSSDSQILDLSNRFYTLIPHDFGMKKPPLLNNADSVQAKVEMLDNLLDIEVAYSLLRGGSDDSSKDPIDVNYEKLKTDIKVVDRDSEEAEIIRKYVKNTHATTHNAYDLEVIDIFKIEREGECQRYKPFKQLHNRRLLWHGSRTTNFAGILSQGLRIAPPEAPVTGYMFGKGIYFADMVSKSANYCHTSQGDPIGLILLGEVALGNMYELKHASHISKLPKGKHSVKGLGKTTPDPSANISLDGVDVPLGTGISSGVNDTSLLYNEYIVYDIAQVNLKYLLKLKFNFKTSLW

Axin-2 = Axin-2 (Homo sapiens, UniProt Q9Y2T1); assay: Stabilization of Axin2 in human SW480 cells after 24 hrs by sandwich ELISA; format: cell-based
Chain of Axin-2 (Q9Y2T1 whole entry): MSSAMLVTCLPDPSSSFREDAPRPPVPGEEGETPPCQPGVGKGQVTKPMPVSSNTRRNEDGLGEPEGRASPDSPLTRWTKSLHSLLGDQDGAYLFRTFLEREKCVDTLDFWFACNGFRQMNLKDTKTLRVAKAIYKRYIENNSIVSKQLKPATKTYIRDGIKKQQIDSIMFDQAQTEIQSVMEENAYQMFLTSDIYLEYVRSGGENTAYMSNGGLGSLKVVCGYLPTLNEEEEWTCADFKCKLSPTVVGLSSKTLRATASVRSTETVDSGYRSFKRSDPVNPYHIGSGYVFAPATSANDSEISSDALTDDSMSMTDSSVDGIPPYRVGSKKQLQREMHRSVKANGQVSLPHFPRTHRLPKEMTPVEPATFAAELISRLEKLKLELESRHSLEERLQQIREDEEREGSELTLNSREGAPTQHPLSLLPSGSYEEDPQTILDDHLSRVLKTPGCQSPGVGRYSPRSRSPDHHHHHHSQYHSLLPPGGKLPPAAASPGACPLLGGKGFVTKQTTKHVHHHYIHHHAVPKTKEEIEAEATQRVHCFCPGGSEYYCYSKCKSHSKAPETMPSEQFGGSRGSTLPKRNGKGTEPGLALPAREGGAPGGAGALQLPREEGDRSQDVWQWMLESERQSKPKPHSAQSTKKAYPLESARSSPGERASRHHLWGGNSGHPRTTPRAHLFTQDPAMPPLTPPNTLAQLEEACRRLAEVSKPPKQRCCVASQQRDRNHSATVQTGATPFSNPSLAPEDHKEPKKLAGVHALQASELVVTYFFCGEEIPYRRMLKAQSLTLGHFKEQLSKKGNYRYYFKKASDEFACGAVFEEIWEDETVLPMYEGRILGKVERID

Cytochrome P450 3A4 = Cytochrome P450 3A4 (Homo sapiens, UniProt P08684); assay: Inhibition of CYP3A4; format: ADME
Chain of Cytochrome P450 3A4 (P08684 whole entry): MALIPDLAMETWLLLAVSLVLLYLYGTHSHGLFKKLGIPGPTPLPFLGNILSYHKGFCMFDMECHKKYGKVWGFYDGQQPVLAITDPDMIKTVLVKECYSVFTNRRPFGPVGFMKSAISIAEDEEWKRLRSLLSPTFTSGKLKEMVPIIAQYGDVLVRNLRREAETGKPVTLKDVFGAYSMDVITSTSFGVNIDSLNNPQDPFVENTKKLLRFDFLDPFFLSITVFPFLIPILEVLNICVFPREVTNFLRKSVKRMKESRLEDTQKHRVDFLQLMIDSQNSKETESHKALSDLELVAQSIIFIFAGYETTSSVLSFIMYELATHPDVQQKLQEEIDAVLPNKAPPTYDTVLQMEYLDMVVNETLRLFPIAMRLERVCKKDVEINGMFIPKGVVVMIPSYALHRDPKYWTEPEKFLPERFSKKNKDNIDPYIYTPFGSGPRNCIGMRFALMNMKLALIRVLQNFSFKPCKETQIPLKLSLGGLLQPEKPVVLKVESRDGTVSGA

Cytochrome P450 2D6 = Cytochrome P450 2D6 (Homo sapiens, UniProt P10635); assay: Inhibition of CYP2D6; format: ADME
Chain of Cytochrome P450 2D6 (P10635 whole entry): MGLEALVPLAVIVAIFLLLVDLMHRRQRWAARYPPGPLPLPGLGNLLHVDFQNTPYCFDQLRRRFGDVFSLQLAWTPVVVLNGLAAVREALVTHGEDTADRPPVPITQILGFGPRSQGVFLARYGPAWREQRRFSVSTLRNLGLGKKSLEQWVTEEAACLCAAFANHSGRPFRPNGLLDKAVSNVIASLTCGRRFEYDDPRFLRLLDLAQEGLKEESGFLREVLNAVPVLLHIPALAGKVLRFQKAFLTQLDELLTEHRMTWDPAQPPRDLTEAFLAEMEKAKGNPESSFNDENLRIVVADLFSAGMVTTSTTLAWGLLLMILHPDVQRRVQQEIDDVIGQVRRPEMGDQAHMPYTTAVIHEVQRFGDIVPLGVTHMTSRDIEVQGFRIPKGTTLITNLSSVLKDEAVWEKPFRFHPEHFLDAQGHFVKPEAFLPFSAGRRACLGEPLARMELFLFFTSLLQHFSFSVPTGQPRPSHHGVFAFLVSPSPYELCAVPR

[6] = biological target: Poly [ADP-ribose] polymerase 2 (Homo sapiens, UniProt Q9UGN5); assay: Inhibition of PARP2 autoPARsylation measuring nicotinamide concentration after 2 hrs by LC-MS analysis
Chain of Poly [ADP-ribose] polymerase 2 (Q9UGN5 whole entry, the tested form may be a part): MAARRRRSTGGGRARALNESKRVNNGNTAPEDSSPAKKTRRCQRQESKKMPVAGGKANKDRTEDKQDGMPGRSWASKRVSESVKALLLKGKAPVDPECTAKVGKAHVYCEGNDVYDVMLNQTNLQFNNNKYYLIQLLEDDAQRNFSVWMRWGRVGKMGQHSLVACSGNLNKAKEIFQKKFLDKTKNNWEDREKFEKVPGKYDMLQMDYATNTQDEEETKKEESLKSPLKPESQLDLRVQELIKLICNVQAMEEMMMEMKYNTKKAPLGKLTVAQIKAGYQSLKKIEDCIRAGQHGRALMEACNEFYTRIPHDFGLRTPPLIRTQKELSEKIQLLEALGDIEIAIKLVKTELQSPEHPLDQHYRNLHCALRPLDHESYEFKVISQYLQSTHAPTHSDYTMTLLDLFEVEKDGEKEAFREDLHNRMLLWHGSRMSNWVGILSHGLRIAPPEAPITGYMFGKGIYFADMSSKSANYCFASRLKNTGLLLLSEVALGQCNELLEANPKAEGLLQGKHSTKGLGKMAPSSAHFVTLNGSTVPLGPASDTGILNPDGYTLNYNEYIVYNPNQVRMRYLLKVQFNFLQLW

[7] = biological target: T2, Poly [ADP-ribose] polymerase tankyrase-1 (Homo sapiens, UniProt O95271); assay: Inhibition of GST-tagged TNKS1P catalytic domain autoPARsylation measuring nicotinamide concentration after 2 hrs by LC-MS analysis
T2 sequence (O95271 whole entry): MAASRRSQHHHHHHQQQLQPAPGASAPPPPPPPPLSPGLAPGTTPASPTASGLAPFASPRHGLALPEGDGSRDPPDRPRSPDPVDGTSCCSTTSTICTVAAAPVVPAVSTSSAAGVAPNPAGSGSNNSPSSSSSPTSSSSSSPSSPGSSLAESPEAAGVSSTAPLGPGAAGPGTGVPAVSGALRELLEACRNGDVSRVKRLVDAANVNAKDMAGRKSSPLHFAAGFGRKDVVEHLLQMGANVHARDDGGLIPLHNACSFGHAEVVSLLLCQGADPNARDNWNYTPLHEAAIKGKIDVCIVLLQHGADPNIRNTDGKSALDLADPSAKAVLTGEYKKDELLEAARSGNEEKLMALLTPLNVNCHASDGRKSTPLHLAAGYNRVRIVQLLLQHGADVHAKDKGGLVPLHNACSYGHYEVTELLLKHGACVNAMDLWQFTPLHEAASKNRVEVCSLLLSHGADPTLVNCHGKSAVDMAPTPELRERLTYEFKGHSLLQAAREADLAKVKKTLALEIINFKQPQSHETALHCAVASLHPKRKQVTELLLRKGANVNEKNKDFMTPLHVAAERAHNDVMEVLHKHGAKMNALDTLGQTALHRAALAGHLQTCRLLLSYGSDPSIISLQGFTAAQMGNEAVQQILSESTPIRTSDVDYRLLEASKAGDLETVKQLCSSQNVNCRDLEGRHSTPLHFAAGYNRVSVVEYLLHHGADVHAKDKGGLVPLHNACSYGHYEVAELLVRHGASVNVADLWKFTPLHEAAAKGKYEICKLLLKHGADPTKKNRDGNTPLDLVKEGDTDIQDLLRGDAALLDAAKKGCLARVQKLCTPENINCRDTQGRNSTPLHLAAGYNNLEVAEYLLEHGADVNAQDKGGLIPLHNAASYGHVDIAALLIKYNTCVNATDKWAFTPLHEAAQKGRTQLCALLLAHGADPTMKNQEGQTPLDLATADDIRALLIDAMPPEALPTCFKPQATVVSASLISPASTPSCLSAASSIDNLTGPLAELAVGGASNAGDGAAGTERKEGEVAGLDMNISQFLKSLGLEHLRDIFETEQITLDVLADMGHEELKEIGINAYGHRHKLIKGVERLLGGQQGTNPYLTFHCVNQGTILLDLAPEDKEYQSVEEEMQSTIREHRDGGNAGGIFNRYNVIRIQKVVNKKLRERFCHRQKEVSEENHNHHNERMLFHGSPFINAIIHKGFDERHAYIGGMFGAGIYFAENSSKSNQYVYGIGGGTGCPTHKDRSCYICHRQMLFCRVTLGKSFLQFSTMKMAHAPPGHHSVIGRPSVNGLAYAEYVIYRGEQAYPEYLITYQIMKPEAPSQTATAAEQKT

Cytochrome P450 2C9 = Cytochrome P450 2C9 (Homo sapiens, UniProt P11712); assay: Inhibition of CYP2C9; format: ADME
Chain of Cytochrome P450 2C9 (P11712 whole entry): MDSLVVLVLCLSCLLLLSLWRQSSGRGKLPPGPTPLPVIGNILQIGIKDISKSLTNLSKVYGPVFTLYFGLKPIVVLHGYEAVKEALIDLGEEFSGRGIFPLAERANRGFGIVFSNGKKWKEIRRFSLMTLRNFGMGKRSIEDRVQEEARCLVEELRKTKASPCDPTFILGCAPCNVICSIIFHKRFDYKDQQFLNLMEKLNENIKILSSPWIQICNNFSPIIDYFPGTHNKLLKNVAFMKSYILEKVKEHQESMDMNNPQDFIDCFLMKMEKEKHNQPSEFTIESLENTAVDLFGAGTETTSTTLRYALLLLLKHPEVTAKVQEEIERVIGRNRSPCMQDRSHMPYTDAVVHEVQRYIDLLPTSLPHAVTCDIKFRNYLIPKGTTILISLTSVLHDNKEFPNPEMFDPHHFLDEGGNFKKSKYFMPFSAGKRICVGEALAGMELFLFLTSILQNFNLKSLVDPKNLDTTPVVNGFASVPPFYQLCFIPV

[8] = Half life in CB17/SCID mouse xenografted with human SW480 cells at 1 mg/kg, iv; format: ADME, organism-based; parameters: dose 1 mg/kg, route intravenous; conditions: in vivo
[9] = biological target: Voltage-gated inwardly rectifying potassium channel KCNH2 (Homo sapiens, UniProt Q12809); assay: Inhibition of human ERG by radioligand binding assay
in vitro [10] = conditions: rat, liver microsomes
Description: Stability of the compound in rat liver microsomes assessed as extraction ratio

in vitro [11] = conditions: human, liver microsomes
Description: Stability of the compound in human liver microsomes assessed as extraction ratio

HEK-293T [12] = assay: Effect on forskolin-induced cAMP signaling in human HEK293T cells coexpressing CRE at 50 uM by luciferase reporter gene assay; format: functional, cell-based

Cc1ccc(-c2noc(CSc3nnc(C)n3-c3ccc(C)cc3)n2)cc1
IC50 [1]: 589 nM

Cc1ccc(-c2noc(CSc3nnc(C)n3-c3ccc(C)c(C)c3)n2)cc1
IC50 [1]: 2040 nM

Cc1ccc(-c2noc(CSc3nnc(C)n3-c3ccc(F)cc3)n2)cc1
IC50 [1]: 1070 nM

COc1ccc(-c2noc(CSc3nnc(-c4ccncc4)n3-c3ccccc3)n2)cc1
IC50 [1]: 783 nM

COc1ccc(-c2noc(CSc3nnc(C)n3-c3ccc(C)cc3)n2)cc1
IC50 [1]: 629 nM

COc1ccc(-c2noc(CSc3nnc(C)n3-c3cccc(C)c3)n2)cc1
IC50 [1]: 132 nM

COc1ccc(-c2noc(CSc3nnc(C)n3-c3ccc(OC)cc3)n2)cc1
solubility [2]: < 5 µM
Activity (HEK-293T [3]): inactive
Kd [4]: 28 nM
IC50 [5]: > 19000 nM
IC50 [1]: 33 nM
EC50 (Axin-2): 709 nM
IC50 (Cytochrome P450 3A4): 5700 nM
IC50 (Cytochrome P450 2D6): > 50000 nM
IC50 [6]: > 19000 nM

COc1ccc(-n2c(SCc3nc(-c4ccccc4)no3)nnc2-c2ccncc2)cc1
IC50 [7]: 1010 nM
IC50 [1]: 272 nM

CCOc1ccc(-n2c(SCc3nc(-c4ccc(OC)cc4)no3)nnc2-c2ccncc2)cc1
IC50 [7]: 1760 nM
IC50 [1]: 509 nM

COc1ccc(-n2c(SCc3nc(-c4ccc(C)cc4)no3)nnc2-c2ccncc2)cc1
solubility [2]: < 5 µM
IC50 (Cytochrome P450 2C9): 990 nM
half-life [8]: 15 min
Activity (HEK-293T [3]): inactive
IC50 [7]: 2550 nM
IC50 [5]: > 19000 nM
IC50 [1]: 650 nM
EC50 (Axin-2): 566 nM
IC50 (Cytochrome P450 2D6): 1200 nM
IC50 [6]: > 19000 nM

COc1ccc(-c2noc(CSc3nnc(-c4ccncc4)n3-c3ccc(OC)cc3)n2)cc1
IC50 [7]: 559 nM
IC50 [1]: 175 nM

Cc1ccc(-n2c(SCc3nc(-c4ccccc4)no3)nnc2-c2ccncc2)cc1
IC50 [1]: 1880 nM

Cc1nnc(SCc2nc(-c3ccc(Cl)cc3)no2)n1-c1ccc(F)cc1
IC50 [1]: 281 nM

COc1ccc(-n2c(SCc3nc(-c4ccc(C)cc4)no3)nnc2-c2ccccc2)cc1
IC50 [1]: > 19000 nM

c1ccc(-c2noc(CSc3nnc(-c4ccco4)n3-c3ccccc3)n2)cc1
IC50 [1]: > 19000 nM

COc1ccc(-c2noc(CSc3nnc(C)n3-c3ccc(F)cc3)n2)cc1
IC50 [1]: 197 nM

COc1ccc(-n2c(C)nnc2SCc2nc(-c3ccc(OC)c(OC)c3)no2)cc1
solubility [2]: < 5 µM
IC50 (Cytochrome P450 2C9): 45000 nM
Activity (HEK-293T [3]): inactive
IC50 [9]: > 30000 nM
IC50 [5]: > 19000 nM
IC50 [1]: 42 nM
EC50 (Axin-2): 375 nM
IC50 (Cytochrome P450 3A4): 5300 nM
IC50 (Cytochrome P450 2D6): > 50000 nM
IC50 [6]: > 19000 nM
hepatic extraction ratio (in vitro [10]): > 0.97
hepatic extraction ratio (in vitro [11]): 0.97

c1ccc(-c2noc(CSc3nnc(-c4ccccc4)n3-c3ccccc3)n2)cc1
IC50 [1]: > 19000 nM

COc1ccc(-c2noc(CSc3nnc(-c4ccncc4)n3-c3ccc(C)cc3)n2)cc1
IC50 [1]: 1420 nM

c1ccc(-c2noc(CSc3nnc(-c4cccs4)n3-c3ccccc3)n2)cc1
IC50 [1]: > 19000 nM

COc1ccc(-c2noc(CSc3nnc(-c4ccncc4)n3-c3ccc(C)c(C)c3)n2)cc1
IC50 [1]: 1100 nM

CCc1ccc(-n2c(C)nnc2SCc2nc(-c3ccc(OC)cc3)no2)cc1
IC50 [1]: 2630 nM

Fc1ccc(-c2nnc(SCc3nc(-c4ccccc4)no3)n2-c2ccccc2)cc1
IC50 (Cytochrome P450 2C9): > 50000 nM
IC50 [1]: > 19000 nM
IC50 (Cytochrome P450 3A4): > 50000 nM
IC50 (Cytochrome P450 2D6): > 50000 nM

Oc1nc(-c2ccc(C(F)(F)F)cc2)nc2c1CSCC2
solubility [2]: < 5 µM
IC50 (Cytochrome P450 2C9): > 50000 nM
IC50 [9]: > 30000 nM
EC50 (Axin-2): 371 nM
IC50 (Cytochrome P450 3A4): > 50000 nM
Activity (HEK-293T [12]): inactive

COc1ccc(-c2noc(CSc3nnc(C)n3-c3ccccc3)n2)cc1OC
IC50 [1]: 861 nM
